Consider 2 compounds from patent publication US20210186973A1, “COMBINATION OF RIBOCICLIB AND DABRAFENIB FOR TREATING OR PREVENTING CANCER” (NOVARTIS AG, priority 2015, published 2021).

Structures are written as SMILES. Entries after “also recorded” stand apart in the source; their conditions may differ. Where only a bound is given, the exact number is not on record here.

Common to all, as to assay type: cell-based
For assay [1], the system named is 6 B-Raf mutant colorectal cancer cell lines. The assay can be described thus: Cell proliferation over the panel of 6 cell lines. Conditions: single agent. As for the experimental part:
(§1) The compounds were dissolved in 100% DMSO (Sigma, Catalog number D2650) at concentrations of 20 mM and stored at −20° C. until use. Compounds were arrayed in drug master plates (Greiner, Catalog number 788876) and serially diluted 3-fold (7 steps) at 2000× concentration.
(§2) Colorectal cancer cell lines used for this study were obtained, cultured and processed from commercial vendors ATCC, CellBank Australia, and HSRRB (Table 1). All cell line media were supplemented with 10% FBS (HyClone, Catalog number SH30071.03). […]
(§3) Cell lines were cultured in 37° C. and 5% CO2 incubator and expanded in T-75 flasks. In all cases cells were thawed from frozen stocks, expanded through ≥1 passage using 1:3 dilutions, counted and assessed for viability using a ViCell counter (Beckman-Coulter) prior to plating. […] All cell lines were determined to be free of mycoplasma contamination as determined by a PCR detection methodology performed at Idexx Radil (Columbia, Mo., USA) and correctly identified by detection of a panel of SNPs.
(§4) Images were analyzed after adapting previously described methods (Horn, Sandmann et al. 2011) and using the Bioconductor package EBImage in R (Pau, Fuchs et al. 2010). Objects in both channels, DAPI (for Hoechst/DNA) and FITC (for Caspase 3/7), were segmented separately by adaptive thresholding and counted. […]

The test system of the next assay is RKO. The assay can be described thus: Cell proliferation (cell count by microscopy) in RKO. Conditions: Homo sapiens; single agent; RKO (BRAF, PIK3CA); 72 h; 50% of cell counts relative to DMSO. On the procedure:
as §1, §2, §3, §4

Another assay has as its system LS411N. The experiment in a line: Cell proliferation (cell count by microscopy) in LS411N. Particulars: Homo sapiens, LS-411N; single agent; LS411N (BRAF); 72 h; 50% of cell counts relative to DMSO. On the procedure: as §1, §2, §3, §4
The next assay has as its system HT-29. The experiment in a line: Cell proliferation (cell count by microscopy) in HT-29. Particulars: Homo sapiens; single agent; HT-29 (BRAF, PIK3CA); 72 h; 50% of cell counts relative to DMSO. As for the experimental part: as §1, §2, §3, §4
In another assay the test system is LIM2551. The assay can be described thus: Cell proliferation (cell count by microscopy) in LIM2551. Conditions: single agent; LIM2551 (BRAF, PIK3CA); 72 h; 50% of cell counts relative to DMSO. On the procedure: as §1, §2, §3, §4
The next assay relates to COLO-205. The experiment in a line: Cell proliferation (cell count by microscopy) in COLO-205. Particulars: Homo sapiens; single agent; COLO-205 (BRAF); 72 h; 50% of cell counts relative to DMSO. On the procedure: as §1, §2, §3, §4
The subject of a further assay is OUMS-23. The experiment in a line: Cell proliferation (cell count by microscopy) in OUMS-23. Conditions: single agent; OUMS-23 (BRAF); 72 h; 50% of cell counts relative to DMSO. On the procedure:
as §1, §2, §3, §4

With `Cc1nc(NC(=O)N2CCC[C@H]2C(N)=O)sc1-c1ccnc(C(C)(C)C(F)(F)F)c1` [BYL719, (S)-Pyrrolidine-1,2-dicarboxylic acid 2-amide 1-({4-methyl-5-[2-(2,2,2-trifluoro-1,1-dimethyl-ethyl)-pyridin-4-yl]-thiazol-2-yl}-amide)], the “IC50s (in words)” value in assay [1] (in the PIK3CA mutant cells) is given as “micromolar”.
Regarding `CC(C)(C)c1nc(-c2cccc(NS(=O)(=O)c3c(F)cccc3F)c2F)c(-c2ccnc(N)n2)s1` [Dabrafenib, N-{3-[5-(2-Amino-4-pyrimidinyl)-2-(1,1-dimethylethyl)-1,3-thiazol-4-yl]-2-fluorophenyl}-2,6-difluorobenzenesulfonamide], the IC50 with RKO is 240 nM; in the assay with LS411N, 36 nM; with HT-29, 16 nM; in the assay on LIM2551, 18 nM; in the assay on COLO-205 it was 7 nM; in the assay on OUMS-23 it was > 1000 nM. In addition, the “IC50s (in words)” value in assay [1] (all but one cell line (ODMS-23)) is on record as “nanomolar to low micromolar; also recorded: nanomolar to sub-micromolar”.
